Assay results as given in the supplement of paper PMC7600603.

What was measured:
DLD1 NRF2-GOF [1] = experiment: drug sensitivity score (DSS) cytotoxicity (DSS score); higher = more toxic; extreme values may be limits of the assay; settings: 72 h; CellTox Green cytotoxicity
Procedure, shortened: (§1)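 TC50 and drug sensitivity score, a normalised area under the curve, were derived by logistic dose-response fits of cytotoxicity. The cells were an isogenic DLD1 colorectal cancer pair, NRF2 wild-type or CRISPR-edited, kept in DMEM with 10% FBS. Compounds were tested in 384-well plates at 5 concentrations across a 10,000-fold range for 72 h. Readings with CellTox Green on a Pherastar FS reader were normalised to vehicle wells and 100-μM positive-control wells.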

DLD1 NRF2-WT [2] = experiment: as above; settings: 72 h; CellTox Green cytotoxicity
Procedure, shortened: as §1

DLD1 NRF2-GOF [3] = experiment: drug sensitivity score (DSS) viability (DSS score); higher = more sensitive; extreme values may be limits of the assay; settings: 72 h; CellTiter-Glo viability
Procedure, shortened: (§2)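 Cells grown in DMEM with 10% FBS were isogenic DLD1 colorectal cancer lines, NRF2 wild-type or CRISPR gain-of-function. In 384-well plates they received library compounds at 5 concentrations over a 10,000-fold range for 72 h before CellTiter-Glo readout on a Pherastar FS reader, normalised to vehicle wells and 100-μM positive-control wells. Dose-response fits used a four-parameter logistic model, from which EC50 and drug sensitivity score, a normalised area under the curve, were obtained.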

DLD1 NRF2-GOF [4] = settings: 72 h; CellTiter-Glo viability
Procedure, shortened: as §2

DLD1 NRF2-GOF [5] = experiment: TC50 cytotoxicity; higher = less toxic; settings: 72 h; CellTox Green cytotoxicity
Procedure, shortened: as §1

DLD1 NRF2-WT [6] = experiment: TC50 cytotoxicity; higher = less toxic; settings: 72 h; CellTox Green cytotoxicity
Procedure, shortened: as §1

DLD1 NRF2-WT [7] = experiment: drug sensitivity score (DSS) viability (DSS score); higher = more sensitive; extreme values may be limits of the assay; settings: 72 h; CellTiter-Glo viability
Procedure, shortened: as §2

DLD1 NRF2-WT [8] = settings: 72 h; CellTiter-Glo viability
Procedure, shortened: as §2

Row | SMILES | EC50 viability (DLD1 NRF2-GOF [4]) [nM] | EC50 viability (DLD1 NRF2-WT [8]) [nM] | drug sensitivity score (DLD1 NRF2-GOF [1]) | drug sensitivity score (DLD1 NRF2-WT [2]) | drug sensitivity score (DLD1 NRF2-GOF [3]) | TC50 cytotoxicity (DLD1 NRF2-GOF [5]) [nM] | TC50 cytotoxicity (DLD1 NRF2-WT [6]) [nM] | drug sensitivity score (DLD1 NRF2-WT [7])
1 | NCC(=O)Nc1ccc(-n2nc(C(F)(F)F)cc2-c2ccc3c(ccc4ccccc43)c2)cc1 | > 25000 | – | 0 | 0 | 0 | > 25000 | > 25000 | 0.8
2 | Nc1ncnc2c1c(COc1cccc(Cl)c1)nn2C1CCOCC1 | > 10000 | – | 0 | 0 | 0.6 | > 10000 | > 10000 | –
3 | O=C(NOC[C@H](O)CO)c1ccc(F)c(F)c1Nc1ccc(I)cc1F | > 1000 | – | 0 | 0 | 0.1 | > 1000 | > 1000 | 2
4 | CC/C(=C(\c1ccc(O)cc1)c1ccc(OCCN(C)C)cc1)c1ccccc1 [4-hydroxytamoxifen] | 8.8 | – | 0 | 0 | 10.6 | > 10000 | > 10000 | 5
5 | C[C@H](Nc1ncnc2[nH]cnc12)c1cc2ccc(F)cc2nc1-c1ccccn1 [AMG319] | > 1000 | – | 0 | 0 | 1.6 | > 1000 | > 1000 | –
6 | Cn1ncc(Cl)c1-c1cc(C(=O)N[C@H](CN)Cc2cccc(F)c2)sc1Cl [Afuresertib] | > 1000 | – | 0 | 0 | 0.6 | > 1000 | > 1000 | 1
7 | Oc1ncnc2[nH]ncc12 [Allopurinol] | > 10000 | – | 0 | 0 | 0 | > 10000 | > 10000 | –
8 | Cc1nc(NC(=O)N2CCC[C@H]2C(N)=O)sc1-c1ccnc(C(C)(C)C(F)(F)F)c1 [Alpelisib] | > 2500 | – | 0 | 0 | 0.3 | > 2500 | > 2500 | 2.4
9 | CC1(C)C(C(=O)Nc2ccc(S(=O)(=O)c3ccc(NC(=O)C4C(C)(C)C4(C)C)cc3)cc2)C1(C)C [BRD7116] | 48.2 | – | – | – | 7.6 | – | – | 5.5
10 | CC(C)C(=O)Nc1ccc([N+](=O)[O-])c(C(F)(F)F)c1 [Flutamide] | 796 | – | 0 | 0 | 4.6 | > 10000 | > 10000 | 0.9
11 | CC(C)C[C@H](NC(=O)[C@@H](COC(C)(C)C)NC(=O)[C@H](Cc1ccc(O)cc1)NC(=O)[C@H](CO)NC(=O)[C@H](Cc1c[nH]c2ccccc12)NC(=O)[C@H](Cc1cnc[nH]1)NC(=O)[C@@H]1CCC(=O)N1)C(=O)N[C@@H](CCCNC(=N)N)C(=O)N1CCC[C@H]1C(=O)NNC(N)=O [Goserelin] | > 10000 | – | 0 | 0 | 0 | > 10000 | > 10000 | 4.5
12 | C#Cc1cccc(Nc2ncnc3cc4c(cc23)OCCOCCOCCO4)c1 [Icotinib] | – | 1540 | 0 | 0 | 0.7 | > 10000 | > 10000 | 2.5
13 | CC(C)Cn1cnc2c(N)nc3ccccc3c21 [Imiquimod] | 44.3 | – | 0 | 0 | 3.9 | > 2500 | > 2500 | –
14 | Nc1cc(COc2c(Cl)cc(C[C@H](N)C(=O)O)cc2Cl)c2oc(-c3ccccc3)nc2c1 [JPH203] | – | > 5000 | 0 | 0 | 5.3 | > 5000 | > 5000 | 4.2
15 | O=C(Nc1cnn2ccc(N3CCC[C@@H]3c3cc(F)ccc3F)nc12)N1CC[C@H](O)C1 [Larotrectinib] | > 1000 | – | 0 | 0 | 0.5 | > 1000 | > 1000 | –
16 | CC1(C)CNc2cc(NC(=O)c3cccnc3NCc3ccncc3)ccc21 [Motesanib] | – | 565 | 0 | 0 | 3.1 | > 10000 | > 10000 | 4.5
17 | FC(F)(F)c1ccc(/C=C/c2nc(COc3ccc(CCCCn4ccnn4)cc3)co2)cc1 [Mubritinib] | – | 33.4 | 0 | 0 | 2.4 | > 1000 | > 1000 | 7.4
18 | CC1(C)NC(=O)N(c2ccc([N+](=O)[O-])c(C(F)(F)F)c2)C1=O [Nilutamide] | – | > 10000 | 0 | 0 | 3.6 | > 10000 | > 10000 | 0
19 | O=C(c1cc(Cc2n[nH]c(=O)c3ccccc23)ccc1F)N1CCN(C(=O)C2CC2)CC1 [Olaparib] | 1400 | – | 0 | 0 | 2.6 | > 10000 | > 10000 | –
20 | C/C=C1\NC(=O)[C@H]2CSSCC/C=C/[C@H](CC(=O)N[C@H](C(C)C)C(=O)N2)OC(=O)[C@H](C(C)C)NC1=O [Romidepsin] | 6 | – | 2.9 | 9.6 | 23.4 | 122 | 105 | –
21 | Cc1cc(F)c(C(=O)Nc2cccc(-c3nncn3C(C)C)n2)cc1-n1cnc(C2CC2)c1 [Selonsertib] | – | 13.3 | 0 | 0 | 3.7 | > 1000 | > 1000 | 4.9
22 | CC(C)(O)CC(=O)NCCn1ccc2ncnc(Nc3ccc(Oc4cccc(C(F)(F)F)c4)c(Cl)c3)c21 [TAK-285] | – | 59.5 | 0 | 0 | 3.7 | > 2500 | > 2500 | 5.4
23 | Cn1nnc2c(C(N)=O)ncn2c1=O [Temozolomide] | 8090 | – | 0 | 0 | 4.1 | > 100000 | > 100000 | –
24 | CS(=O)(=O)c1ccc(-c2cnc(N)c(C(=O)Nc3ccccc3)n2)cc1 [VE-821] | – | > 10000 | 0 | 0 | 0.9 | > 10000 | > 10000 | 0.2
25 | CCc1c(C(=O)C(N)=O)c2c(OCC(=O)O)cccc2n1Cc1ccccc1 [Varespladib] | – | 1220 | 0 | 0 | 0.8 | > 10000 | > 10000 | 3.9
26 | O=C(CCCCCCC(=O)Nc1ccccc1)NO [Vorinostat] | 3550 | – | 0 | 2.2 | 3.5 | > 10000 | 2240 | –

More lines, main results first:

Row | EC50 viability (DLD1 NRF2-GOF [4]) [nM] | EC50 viability (DLD1 NRF2-WT [8]) [nM] | SMILES | drug sensitivity score (DLD1 NRF2-GOF [1]) | drug sensitivity score (DLD1 NRF2-WT [2]) | drug sensitivity score (DLD1 NRF2-GOF [3]) | TC50 cytotoxicity (DLD1 NRF2-GOF [5]) [nM] | TC50 cytotoxicity (DLD1 NRF2-WT [6]) [nM] | drug sensitivity score (DLD1 NRF2-WT [7])
27 | 182 | – | CC(C)Oc1ccc(C(=O)N[C@H](CNC(=O)CN(C)C)Cc2ccc(-c3cn4cccc([C@H](C)O)c4n3)cc2)cc1Cl | 0 | 0 | 10.7 | > 10000 | > 10000 | –
28 | > 10000 | – | CN(C)CC#Cc1ccc(OCCCc2sc(N3CCc4cccc(C(=O)Nc5nc6ccccc6s5)c4C3)nc2C(=O)O)c(F)c1 | 3.3 | – | 0 | 994 | – | –
29 | > 1000 | – | Cc1c(-c2c(-c3ccc(F)o3)sc3ncnc(O[C@H](Cc4ccccc4OCc4ccnn4CC(F)(F)F)C(=O)O)c23)ccc(OCCN2CCN(C)CC2)c1Cl | 0 | 0 | 0 | > 1000 | > 1000 | 3.6
30 | > 10000 | – | N[C@@H]1CCCN(c2c(/C=C3\SC(=O)NC3=O)cccc2-c2ccccc2)C1 [AZD1208] | 0 | 0 | 7.2 | > 10000 | > 10000 | –
31 | 362 | – | Cc1noc2c1-c1ccccc1C(c1ccc(Cl)cc1)=N[C@H]2CC(N)=O [CPI-0610] | 0 | 0 | 3.6 | > 10000 | > 10000 | –
32 | 153 | – | COc1cccc2c1C(=O)c1c(O)c3c(c(O)c1C2=O)C[C@@](O)(C(=O)CO)C[C@@H]3O[C@H]1C[C@H](N)[C@@H](O)[C@H](C)O1 [Epirubicin] | 0 | 0 | 8.6 | > 1000 | > 1000 | –
33 | – | 11.7 | CO[C@H]1C[C@@H]2CC[C@@H](C)[C@@](O)(O2)C(=O)C(=O)N2CCCC[C@H]2C(=O)O[C@H]([C@H](C)C[C@@H]2CC[C@@H](OCCO)[C@H](OC)C2)CC(=O)[C@H](C)/C=C(\C)[C@@H](O)[C@@H](OC)C(=O)[C@H](C)C[C@H](C)/C=C/C=C/C=C/1C [Everolimus] | 0 | 0 | 2.5 | > 100 | > 100 | 4.7
34 | – | 251 | CCc1nc(C(N)=O)c(Nc2ccc(N3CCC(N4CCN(C)CC4)CC3)c(OC)c2)nc1NC1CCOCC1 [Gilteritinib] | 0 | 0 | 1.4 | > 1000 | > 1000 | 2.9
35 | 2830 | – | O=S(=O)(c1cccc2c(O)nccc12)N1CCCNCC1 [Hydroxyfasudil] | 0 | 0 | 3.9 | > 19000 | > 19000 | 2.4
36 | 28.3 | – | CS(=O)(=O)CCNCc1ccc(-c2ccc3ncnc(Nc4ccc(OCc5cccc(F)c5)c(Cl)c4)c3c2)o1 [Lapatinib] | 0 | 0 | 4.4 | > 1000 | > 1000 | 2.8
37 | – | > 10000 | CC[C@H](C)C(=O)O[C@H]1C[C@@H](C)C=C2C=C[C@H](C)[C@H](CC[C@@H]3C[C@@H](O)CC(=O)O3)[C@H]21 [Lovastatin] | 0 | 0 | 5.2 | > 10000 | > 10000 | 0
38 | 2100 | – | O=C(c1ccc(OCCN2CCCCC2)cc1)c1c(-c2ccc(O)cc2)sc2cc(O)ccc12 [Raloxifene] | – | – | 3.2 | – | – | –
39 | > 100 | – | CO[C@H]1C[C@@H]2CC[C@@H](C)[C@@](O)(O2)C(=O)C(=O)N2CCCC[C@H]2C(=O)O[C@H]([C@H](C)C[C@@H]2CC[C@@H](OP(C)(C)=O)[C@H](OC)C2)CC(=O)[C@H](C)/C=C(\C)[C@@H](O)[C@@H](OC)C(=O)[C@H](C)C[C@H](C)/C=C/C=C/C=C/1C [Ridaforolimus] | – | – | 0.8 | – | – | 3.5
40 | 571 | – | CCC(C)(C)C(=O)O[C@H]1C[C@@H](C)C=C2C=C[C@H](C)[C@H](CC[C@@H]3C[C@@H](O)CC(=O)O3)[C@H]21 [Simvastatin] | – | – | 3.8 | – | – | 0
41 | – | 138 | COCCNCc1ccc(-c2cc3nccc(Oc4ccc(NC(=O)C5(C(=O)Nc6ccc(F)cc6)CC5)cc4F)c3s2)nc1 [Sitravatinib] | 0 | 0 | 5.5 | > 2500 | > 2500 | 4.6
42 | > 10000 | – | O=C1CCC(N2C(=O)c3ccccc3C2=O)C(=O)N1 (configuration not stated) [Thalidomide] | 0 | 0 | 0.7 | > 10000 | > 10000 | –
43 | – | 109 | Cn1cncc1[C@@](N)(c1ccc(Cl)cc1)c1ccc2c(c1)c(-c1cccc(Cl)c1)cc(=O)n2C [Tipifarnib] | 0 | 0 | 6.2 | > 10000 | > 10000 | 5.4
44 | 5.1 | – | CCC1=C[C@@H]2CN(C1)Cc1c([nH]c3ccccc13)[C@@](C(=O)OC)(c1cc3c(cc1OC)N(C)[C@H]1[C@@](O)(C(=O)OC)[C@H](OC(C)=O)[C@]4(CC)C=CCN5CC[C@]31[C@@H]54)C2 [Vinorelbine] | 7.5 | 8.1 | 32.2 | > 10000 | – | –
